Literature values in the CATMoS acute toxicity set (Mansouri et al. 2021).
Several values for one entry are separate records, joined by “and”; a condition that tells them apart may be missing. Identical values can stand only once.

Assay: rat acute oral toxicity
Settings: in vivo

SMILES | LD50
CCN(CC)C(=O)c1nnn(-c2ccc(N)cc2)c1C | 494 mg/kg
COc1ccc(C=C2C(=O)N=C3c4ccccc4N=CN23)cc1 | 258 mg/kg
CCCCc1ccc(O)c(C(=O)Nc2cccc(C(F)(F)F)c2)c1 | 2500 mg/kg
CC(CC(=O)OC(C)(C)C)=NNc1ccc(N2CCOCC2)nn1 | 970 mg/kg
CCOP(=S)(OCC)OC(C)=CC(=O)OC | 0.14 mg/kg
CCOP(=S)(N=C1SCCS1)OCC | 14 mg/kg
CC(C)[N+](=O)[O-] | 720 mg/kg
c1ccc2c(C(CCN3CCOCC3)CCN3CCOCC3)cccc2c1 | 708 mg/kg
O=[N+]([O-])CCCO | 77 mg/kg
CCOC(=O)c1c[n+](C)c2n(c1=O)C(C)CCC2 (centres undefined) | 1500 mg/kg
CCCCCCCCCCCCCCCCCC[N+](C)(C)CC(O)CCl (centres undefined) | 2590 mg/kg
Cc1cccc(C)c1NC(=O)CC12CCCN1CCC2 | 255 mg/kg
C=C(C)C(=O)OC[Si]12OCCN(CCO1)CCO2 | 7950 mg/kg
N=c1ccn(O)cc1 | 75 mg/kg
C=COCCOCC1CO1 (centres undefined) | 2440 mg/kg
c1ccc(C2CCCCC2)c(OCC2CNCCO2)c1 (centres undefined) | 1120 mg/kg
CCN(CC)c1nc(N(C=NC2CC(C)(C)NC(C)(C)C2)C2CC(C)(C)NC(C)(C)C2)nc(N(C=NC2CC(C)(C)NC(C)(C)C2)C2CC(C)(C)NC(C)(C)C2)n1 | 826 mg/kg
CC(C)CCOC(=O)c1ccccc1 | 6330 mg/kg
CO[Si](C)(CCCNCCN)OC | 200 mg/kg
CS(=O)(=O)c1ccccc1 | 1470 mg/kg
O=[N+]([O-])O[C@H]1CO[C@H]2[C@@H]1OC[C@H]2O[N+](=O)[O-] | 747 mg/kg
CCCCOCCOCC | 2830 mg/kg
CC[N+](CC)(CC)CCOC(=O)C(C1CCCC1)C1CCCC1 | 780 mg/kg

SMILES | LD50
CCS(=O)CCOP(=O)(OC)OC=C(Cl)Cl (centres undefined) | 110 mg/kg
CCSSCC | 2030 mg/kg
CCCCc1c(OC(=O)c2ccc3c(c2)OCO3)n(-c2ccccc2)n(-c2ccccc2)c1=O | 1370 mg/kg
CN(C)C(=S)N/N=C/c1ccc([N+](=O)[O-])o1 | 750 mg/kg
Clc1cc(Cl)cc(Cl)c1 | 800 mg/kg
O=[N+]([O-])c1cnc(Cl)c([N+](=O)[O-])c1 | 50 mg/kg
CCCCOC(=O)[C@@H](C)Oc1ccc(Oc2ccc(C(F)(F)F)cn2)cc1 | 2710 mg/kg
Nc1c(/N=N/c2ccc([N+](=O)[O-])cc2)c(S(=O)(=O)O)cc2cc(S(=O)(=O)O)c(/N=N/c3ccc(-c4ccc(/N=N/c5ccc(O)cc5)cc4)cc3)c(O)c12 | 14700 mg/kg
CC(C)=CC(NC(=O)C1=C([O-])c2sc(Cl)cc2S(=O)(=O)N1C)[n+]1ccccc1 (centres undefined) | 10 mg/kg
C=CC(COC)c1ccccc1OC(=O)NC (centres undefined) | 100 mg/kg
Cc1cc(Cl)ccc1OCCCC(=O)O | 700 mg/kg
CCOC(C1=NCCCN1)c1cccc2ccccc12 (centres undefined) | 375 mg/kg
Clc1ccc2c(c1)C(N1CCNCC1)=Nc1ccccc1O2 | 313 mg/kg
CN(SC(Cl)(Cl)Cl)C(=O)ON=C1SC(=C(C#N)C#N)SC1(C)C | 538 mg/kg
COc1ccc2c(c1)c(CC(=O)OCOC(=O)c1ccccc1)c(C)n2C(=O)c1ccc(Cl)cc1 | 73 mg/kg
C=C(Cl)CSC(=S)N(CC)CC | 850 mg/kg
O=[N+]([O-])C1(Br)COCOC1 | 455 mg/kg
NCCC=C1c2ccccc2COc2ccccc21 | 960 mg/kg
COC(=O)C1=C(C)NC(C)=C(C(=O)OCC(C)=O)C1c1ccccc1[N+](=O)[O-] (centres undefined) | 1460 mg/kg
OCCN1CCN(CCCN2c3ccccc3Sc3ccc(Cl)cc32)CC1 | 318 mg/kg and 210 mg/kg
CCCCC1C(=O)NC(=O)N(C2CCCCC2)C1=O (centres undefined) | 1120 mg/kg
CCC(C(=O)O)c1ccc(CC(C)C)cc1 (centres undefined) | 1600 mg/kg
CCN[C@H]1C[C@H](C)S(=O)(=O)c2sc(S(N)(=O)=O)cc21 | 1930 mg/kg

SMILES | LD50
CN(c1nc2ccccc2s1)C1CCN(CCCCOc2ccc(F)cc2)CC1 | 154 mg/kg
C#CCOC(=O)/C=C(C)/C=C/CC(C)CCCC(C)C (centres undefined) | 4900 mg/kg
CC[N+](C)(C)CCC(C(N)=O)(c1ccccc1)c1ccccc1 | 1350 mg/kg
CC(C)[C@@]1(O)[C@@H](OC(=O)c2ccc[nH]2)[C@@]2(O)[C@@]3(C)C[C@]4(O)O[C@@]5([C@H](O)[C@@H](C)CC[C@]35O)[C@@]2(O)[C@@]14C | 750 mg/kg
CCOS(=O)(=O)OCC | 880 mg/kg
C=CC[N@@+]12CC[C@@]34c5ccccc5N5C=C6[C@H]7C[C@H]8[C@@]9(CC[N@@+]8(CC=C)C/C7=C/CO)c7ccccc7N(C=C([C@@H](C[C@@H]31)/C(=C\CO)C2)[C@H]54)[C@@H]69 | 27.6 mg/kg
c1ccc2sc(SNC3CCCCC3)nc2c1 | 5300 mg/kg
C[C@@]12CCCCC[C@@H](Cc3ccc(O)cc31)[C@@H]2N | 243 mg/kg
CCCC/C=C\CCCCCCO | 11700 mg/kg
O=NN1CN2CN(C1)CN(N=O)C2 | 940 mg/kg
CCOP(=S)(OCC)SCn1nc(-c2ccccc2)ccc1=O | 555 mg/kg
CCOC(=O)C=Cc1ccc2c(c1)OCO2 | 948 mg/kg
OCCCC(O)CO (centres undefined) | 7800 mg/kg
CNC(=O)Nc1nc2ccccc2s1 | 1280 mg/kg
O=[N+]([O-])c1ccc(NS(=O)(=O)c2ccc(Cl)c(C(F)(F)F)c2)c(Cl)c1 | 132 mg/kg
CN(CCn1cnc2c1c(=O)n(C)c(=O)n2C)c1ccccc1 | 2880 mg/kg
CCCCCCC(=O)OCCN1CCN(CCCN2c3ccccc3Sc3ccc(C(F)(F)F)cc32)CC1 | 230 mg/kg
CC(O)CN(C)C (centres undefined) | 1740 mg/kg
FC(F)(F)c1nc2c(Br)cc(Br)c(Br)c2[nH]1 | 12.8 mg/kg
CCCC(=O)OC1CCC(N2CCCCC2)CC1 (centres undefined) | 1910 mg/kg
C#CC(O)C=CC (centres undefined) | 34 mg/kg
CC(C)(C)c1ccc2cc(C(C)(C)C)c(S(=O)(=O)O)cc2c1 | 4240 mg/kg
CN(C)CCN(C)n1cc(-c2ccccc2)c2ccccc21 | 1160 mg/kg
